According to paper PMC3809078 (Journal of natural products, 2013):

Assays:
[1] = test system: T47D cells; experiment: Cell proliferation/viability assay; assay type: cell-based, human
[2] = test system: MDA-MB-231 cells; experiment: Cell proliferation/viability assay; assay type: cell-based, human
[3] = test system: retinoic acid receptors (RARs); conditions: cytotoxic activity attributed to it; cited from earlier work

**Q.** For `CC1=C(CC/C(C)=C/CC/C(C)=C/C[C@@H](O)C2=CC(=O)OC2)C(C)(C)C(=O)CC1` [Compound 1, thorectidaeolide A], which “effect on cell viability (in words)” value [1] is on record?
**A.** Neither 1, nor 2, or any of the other less active sesterterpenes suppressed

**Q.** What about the “effect on cell viability (in words)” value [2] of the same compound?
**A.** Neither 1, nor 2, or any of the other less active sesterterpenes suppressed

**Q.** For `CC(=O)O[C@H](C/C=C(\C)CC/C=C(\C)CCC1=C(C)CCC(=O)C1(C)C)C1=CC(=O)OC1` [Compound 2, 4-acetoxythorectidaeolide A], which “effect on cell viability (in words)” value [1] is on record?
**A.** Neither 1, nor 2, or any of the other less active sesterterpenes suppressed

**Q.** And the “effect on cell viability (in words)” value [2]?
**A.** Neither 1, nor 2, or any of the other less active sesterterpenes suppressed

**Q.** With `CC1=C(CC/C(C)=C/CC/C(C)=C/CCC2=CC(=O)OC2O)C(C)(C)CCC1` (stereo not shown) [Compound 11, luffariellolide] as the compound, how does the “effect on cell viability (in words)” value [1] read?
**A.** significant level of cytotoxicity

**Q.** What about the “effect on cell viability (in words)” value [2] of the same compound?
**A.** significant level of cytotoxicity

**Q.** And the “action on retinoic acid receptors (in words)” value [3]?
**A.** agonist of retinoic acid receptors
